Measurements published in patent US7029915B2, “Method for differentiating rat hepatic stem cells to insulin-producing cells” (University of Florida Research Foundation, Inc., priority 2002, dated 2006).

Columns and labels:
[1] = system: hepatic stem cells; experiment: Morphology of spheroid cell clusters in high-glucose hepatic stem cell cultures; format: cell-based, rat; details: five to seven days in 10 mM nicotinamide, high glucose (23 mM) culture
Experimental: To induce trans-differentiation, the cells were replated and cultured in RPMI 1640 medium supplemented with 10% FCS and 17.5 mM (23 mM final concentration) glucose. After about two months, scattered small spheroid cell clusters began to form on top of the confluent cell monolayer. Individual spheroids from these cell cultures were selected for clonal passage and were subjected several times to the high glucose (23 mM) culturing process described above. The resultant cells reached confluence, and by day 14 formed additional clusters when maintained under the high glucose conditions. […] Multiple clusters also became connected by duct-like structures.

[2] = system: trans-differentiated hepatic stem cells; experiment: Insulin content and secretion by immunoprecipitation and Western blotting; format: cell-based, rat
Experimental: Measurement of insulin content and secretion by immunoprecipitation and Western blotting. Confluent cultures of trans-differentiated hepatic stem cells were maintained in RPMI 1640 plus 10% fetal calf serum in the presence or absence of 10 mM nicotinamide for 7 days. The cells were then switched to serum-free medium containing 0.5% BSA for 5 hrs, washed twice with serum-free medium, then stimulated with an additional 17.5 mM glucose for 2 hrs. The culture medium was collected and stored at −70° C. for assay of secreted insulin. Intracellular insulin was extracted with lysis buffer. The presence of insulin in the culture media and cell lysates was determined by immunoprecipitation with anti-rabbit-insulin polyclonal antibodies (Santa Cruz Biotechnology), followed by separation of the precipitated material by 18% SDS-PAGE, transfer to nylon membrane, and blotting with anti-insulin antibodies as described (Yang, et al., J. Biol. Chem. 269:7156–7162, 1994). Cell lysates (150 μg) or culture media (1 ml) from each culture were used for the immunoprecipitation. Normal rabbit serum was used as primary antibody control, and culture medium containing 0.5% BSA was used as a control for secreted insulin measurements. […] Insulin content in cells and in the media was determined by pooling cell lysates and culture medium from three separate cultures.

NC(=O)c1cccnc1 [nicotinamide]
number and dimension of spheroid cell clusters [1]: markedly increased | increase of insulin in cell lysates versus untreated cells (densitometric analysis) ([2]; 10 mM nicotinamide for 7 days before stimulation with additional 17.5 mM glucose for 2 hrs, cell lysates): 3.4 times | levels of insulin detected in cell lysates and secreted into culture medium ([2]; growth in nicotinamide before glucose stimulation, Western blot, FIG. 2): increased
